Data on 19 compounds can be found in patent US5654178A, “Immunoassay for tetrachloroisophthalonitrile (chlorothalonil), its derivatives and breakdown products” (ISK Biosciences Corporation, priority 1995, dated 1997).

The structures appear in SMILES notation. Values after ≈ are worked out from the molar mass of the structure shown. Like-named read-outs stand apart in the source and are kept apart here.

One data set in a line: Solubility. The class given is physicochemical.
A further data set has as its system mAb 6F9. In words: TCPN EIA, reactivity profile with monoclonal antibody. The class given is binding, mouse. The settings on record: for IC50: 10 min; for % Cross Reactivity: relative to TCPN. The method, then: (§1) The following immunoassay protocol was followed
(§2) 1. Microplates were prepared by binding screening conjugate Cl-O-AHT to the polystyrene surface.
(§3) 2. An appropriately diluted sample (200 μl) and the anti-TCPN antibody conjugated to horse radish peroxidase (50 μl) were added and incubated for 10 minutes.
(§4) 3. The wells were rinsed, and 200 μl of substrate, tetramethyl benzidine (TMB), was added to the wells.
(§5) 4. The plates were incubated for a further 10 minutes and 50 μl of stop solution (1.5% NaF) was added.
(§6) 5. The color reaction was read by measuring absorbance at 650 nm.
(§7) The cross reactivity of various TCPN derivatives and other benzene ring-based haptens were assessed using the above antibody preparations.

The test system of data set [1] is polyclonal anti-TCPN antibody. The data set can be described thus: TCPN EIA, reactivity profile with polyclonal antibody. The data set is classed as binding. The settings on record: for IC50: 10 min; for % Cross Reactivity: relative to TCPN. As for the experimental part:
as §1, §2, §3, §4, §5, §6, §7

For data set [2] the following is noted: cited from earlier work.
The next data set concerns experimental animals. The settings on record: cited from earlier work.
For the next data set, the system named is human skin. The settings on record: cited from earlier work.
Setting [3] is: water or polar organic solvents.

Turning to `N#Cc1c(Cl)c(C#N)c(Cl)c(OC(=O)NCC(=O)O)c1Cl` [BK-489-35], in “Solubility” (setting [3]), the solubility result was “extremely low solubility”.

In the case of `N#Cc1c(N)c(Cl)c(Cl)c(C#N)c1Cl` [4-aminoTCPN, 4-amino-2,5,6-trichloroisophthalonitrile], in the data set on mAb 6F9, the IC50 is 2.4 ppb and the “% Cross Reactivity” value was found to be 92%. Moreover, in data set [1], the IC50 is 43 ppb and the “% Cross Reactivity” value turned out to be 12%.

As to `NC(=O)c1c(Cl)c(Cl)cc(C(=O)O)c1Cl` [acid/amide TCPN, 3-carbamyl-2,4,5-trichlorobenzoic acid], in the data set on mAb 6F9, the IC50 is listed as > 10^4 ppb and the “% Cross Reactivity” value is < 0.01%. Also, in data set [1], the IC50 is listed as > 10^4 ppb and the “% Cross Reactivity” value is < 0.01%.

With `N#Cc1c(Cl)c(N)c(Cl)c(C#N)c1Cl` [5-amino-TCPN, 5-amino-2,4,6-trichloroisophthalonitrile], in the data set on mAb 6F9, the IC50 came out at 1.9 ppb and the “% Cross Reactivity” value was 116%. In data set [1], the IC50 was found to be 43 ppb and the “% Cross Reactivity” value was 12%.

For the compound `N#Cc1c(Cl)c(C#N)c(Cl)c(OC(=O)CC(=O)O)c1Cl` [BK-489-36], the solubility in “Solubility” (dmf, organic solvent or mixture, read-out: solubility) turned out to be 4500 µg/mL (≈ 13.5 mM).

Take `Clc1c(Cl)c(Cl)c(Cl)c(Cl)c1Cl` [HCB, hexachlorobenzene]: in the data set with mAb 6F9, the IC50 is listed as > 10^4 ppb and the “% Cross Reactivity” value is reported as < 0.01%. In data set [1], the IC50 is reported as > 10^4 ppb and the “% Cross Reactivity” value is listed as < 0.01%.

Turning to `N#Cc1c(Cl)c(Cl)c(Cl)c(Cl)c1Cl` [PCBN, pentachlorobenzonitrile], the IC50 amounted to 30 ppb with mAb 6F9 and 60 ppb in data set [1]. For the same compound, the “% Cross Reactivity” value with mAb 6F9 is 7.3%; in data set [1], 8.3%.

Turning to `N#Cc1c(Cl)c(Cl)c(Cl)c(C(N)=O)c1Cl` [amide TCPN, 2,4,5,6-tetrachloro-3-cyanobenzamide], in the data set with mAb 6F9, the IC50 turned out to be 800 ppb and the “% Cross Reactivity” value was 2.8%. Also, in data set [1], the IC50 amounted to 700 ppb and the “% Cross Reactivity” value worked out at 0.7%.

Regarding `CCc1cccc(C)c1N(C(=O)CCl)C(C)COC` (stereo not drawn) [Metolachlor], the IC50 (in the data set on mAb 6F9; in data set [1]) was > 10^4 ppb throughout. Moreover, the “% Cross Reactivity” value (in the data set on mAb 6F9; in data set [1]) was < 0.01% in each case.

Take `N#Cc1c(Cl)c(O)c(Cl)c(C#N)c1Cl` [5-hydroxyTCPN, 5-hydroxy-2,4,6-trichloroisophthalonitrile]: the IC50 with mAb 6F9 was 7.0 ppb; in data set [1] it was 800 ppb. In addition, the “% Cross Reactivity” value with mAb 6F9 is on record as 31%; in data set [1], 0.6%.

As for `CCNc1nc(Cl)nc(NC(C)C)n1` [Atrazine], in the data set on mAb 6F9, the IC50 is on record as > 10^4 ppb and the “% Cross Reactivity” value is on record as < 0.01%. In data set [1], the IC50 is listed as > 10^4 ppb and the “% Cross Reactivity” value is reported as < 0.01%.

Regarding `N#Cc1c(Cl)c(C#N)c(Cl)c(NC(=O)NCC(=O)O)c1Cl` [BK-489-41], the solubility result in “Solubility” (setting [3]) is on record as “high solubility”.

For the compound `CCc1cccc(CC)c1N(COC)C(=O)CCl` [Alachlor], in the data set on mAb 6F9, the IC50 is recorded as > 10^4 ppb and the “% Cross Reactivity” value is recorded as < 0.01%. For the same compound, in data set [1], the IC50 was > 10^4 ppb and the “% Cross Reactivity” value was < 0.01%.

`N#Cc1c(Cl)c(Cl)c(Cl)c(C#N)c1Cl` [TCPN, tetrachloroisophthalonitrile]: the IC50 in the data set with mAb 6F9 stood at 2.2 ppb; in data set [1] it was 5.0 ppb. Further, the “% Cross Reactivity” value (in the data set with mAb 6F9; in data set [1]) was 100% in each case. The solubility in water entry in data set [2] is recorded as “practically insoluble in water”. The sensitizing properties result in the data set on experimental animals and with human skin (tested directly on human skin) was “sensitizing properties” each time. The allergic reaction entry in the data set with human skin (exposed humans) was “stimulates an allergic reaction, leading to an IgE antibody response”. In addition, the contact dermatitis entry in the data set with human skin (production plant and field) is listed as “associated with contact dermatitis”.

As to `CCCCNC(=O)n1c(NC(=O)OC)nc2ccccc21` [Benomyl], in the data set on mAb 6F9, the IC50 was > 10^4 ppb and the “% Cross Reactivity” value was < 0.01%. Moreover, in data set [1], the IC50 was > 10^4 ppb and the “% Cross Reactivity” value is reported as < 0.01%.

For `N#Cc1c(S)c(Cl)c(Cl)c(C#N)c1Cl` [4-mercaptoTCPN, 4-mercapto-2,5,6-trichloroisophthalonitrile], in the data set on mAb 6F9, the IC50 was found to be 4.8 ppb and the “% Cross Reactivity” value came out at 46%. In data set [1], the IC50 amounted to 10 ppb and the “% Cross Reactivity” value turned out to be 60%.

Regarding `CCCN(CCC)c1c([N+](=O)[O-])cc(C(F)(F)F)cc1[N+](=O)[O-]` [Trifluralin], in the data set on mAb 6F9, the IC50 is > 10^4 ppb and the “% Cross Reactivity” value was < 0.01%. In addition, in data set [1], the IC50 was > 10^4 ppb and the “% Cross Reactivity” value is listed as < 0.01%.

Regarding `COC(=O)Nc1nc2ccccc2[nH]1` [MBC, carbendazim], the IC50 (in the data set on mAb 6F9; in data set [1]) was > 10^4 ppb each time. Besides, the “% Cross Reactivity” value (in the data set with mAb 6F9; in data set [1]) was < 0.01% throughout.

`N#Cc1c(O)c(Cl)c(Cl)c(C#N)c1Cl` [4-hydroxyTCPN, 4-hydroxy-2,5,6-trichloroisophthalonitrile]: in the data set with mAb 6F9, the IC50 is reported as 8.0 ppb and the “% Cross Reactivity” value is 28%. In data set [1], the IC50 stood at 1010 ppb and the “% Cross Reactivity” value is listed as 0.5%.
